Patent US20220053762A1, “HERBICIDAL COMPOSITIONS” (Bayer Aktiengesellschaft, priority 2018, published 2022)

System: harmful plant species
Experiment: Specific trial examples: binary compositions applied by the post-emergence method, synergistic effect according to Colby (Tables 3.1-3.2)
Assay type: in vivo
Conditions: for Herbicidal action against Echinochloa crus-galli: g a.i./ha: r372 270, r373 90, r374 30, r375 5; for Herbicidal action against Phalaris minor: g a.i./ha: r709 4, r710 270; for Herbicidal action against Poa annua L.: g a.i./ha: r729 4, r730 270; for Herbicidal action against Galium aparine: g a.i./ha: r662 1, r663 270
Protocol: When the observed efficacies already exceed the formal sum total of the values of the tests with individual applications, they also exceed the expected value according to Colby, which is calculated using the formula below and is likewise regarded as an indication of synergism (cf. S. R. Colby; in Weeds 15 (1967) p. 20 to 22):
Seeds or rhizome pieces of mono- and dicotyledonous weeds are placed in sandy loam in pots, covered with soil and grown in a greenhouse under good growth conditions (temperature, air humidity, water supply). Three weeks after sowing, the test plants are treated at the three-leaf stage with the compositions according to the invention. The compositions according to the invention formulated as spray powders or as emulsion concentrates are sprayed onto the green plant parts in various dosages with an application rate of 300 to 800 l/ha of water (equivalent).
The sum total of the effects of the individual applications is reported under E^A; Expected values according to Colby are each reported under E^C.
The rating period is reported in days after application (DAT).

[1] = (Z119) 14 DAT, g a.i./ha: r682 16, r683 30
[2] = (Z119) 28 DAT, g a.i./ha: r654 16, r655 30
[3] = (Z119) 28 DAT, g a.i./ha: r690 16, r691 30

## C[C@]1(C(=O)N[C@H]2CO[C@@H](C(=O)NS(C)(=O)=O)C2)CC(c2cc(F)cc(F)c2)=NO1 (relative stereo) [Compound A2, (5R)-3-(3,5-difluorophenyl)-5-methyl-N-[rel-(3R,5R)-5-(methylsulfonylcarbamoyl)tetrahydrofuran-3-yl]-4H-isoxazole-5-carboxamide]
1.7 g a.i./ha
  Herbicidal action 28 DAT against Brachiaria platyphylla: 0%
  Herbicidal action 28 DAT against Digitaria sanguinalis: 0%
  Herbicidal action 28 DAT against Echinochloa crus-galli: 10%
  Herbicidal action 28 DAT against Eleusine indica: 30%
  Herbicidal action 28 DAT against Sorghum halepense: 0%
5 g a.i./ha
  Herbicidal action 28 DAT against Amaranthus palmeri (res.): 15%
  Herbicidal action 28 DAT against Digitaria sanguinalis: 0%
  Herbicidal action 28 DAT against Echinochloa crus-galli: 20%
  Herbicidal action 28 DAT against Eleusine indica: 35%
  Herbicidal action 28 DAT against Kochia scoparia: 20%
  Herbicidal action 28 DAT against Pharbitis purpurea: 75%
  Herbicidal action 28 DAT against Polygonum convolvulus: 80%
  Herbicidal action 28 DAT against Sorghum halepense: 0%
15 g a.i./ha
  Herbicidal action 28 DAT against Amaranthus palmeri (res.): 65%
  Herbicidal action 28 DAT against Eleusine indica: 45%
  Herbicidal action 28 DAT against Kochia scoparia: 20%
  Herbicidal action 28 DAT against Sorghum halepense: 15%
(Z32) 28 DAT, g a.i./ha: r315 270, r316 90, r317 30, r318 15
  Herbicidal action against Abutilon theophrasti: 20%
(Z32) 28 DAT, g a.i./ha: r337 270, r338 90, r339 30, r340 15
  Herbicidal action against Bidens pilosa: 10%
(Z32) 28 DAT, g a.i./ha: r361 270, r362 90, r363 30, r364 15
  Herbicidal action against Digitaria sanguinalis: 10%
(Z32) 28 DAT
  Herbicidal action against Echinochloa crus-galli: 20%
(Z32) 28 DAT, g a.i./ha: r396 270, r397 90, r398 15, r399 5
  Herbicidal action against Kochia scoparia: 20%
(Z32) 28 DAT, g a.i./ha: r408 270, r409 90, r410 30, r411 5
  Herbicidal action against Pharbitis purpurea: 75%
(Z32) 28 DAT, g a.i./ha: r419 90, r420 30, r421 5
  Herbicidal action against Polygonum convolvulus: 80%
post-emergence, single active compound (A2 series), g a.i./ha: r326 150, r327 50, r328 5, r329 1.7
  Herbicidal action 28 DAT [%] against Digitaria sanguinalis: 0%
post-emergence, single active compound (A2 series), g a.i./ha: r337 150, r339 5
  Herbicidal action 28 DAT [%] against Eleusine indica: 35%
post-emergence, single active compound (A2 series), g a.i./ha: r347 50, r349 5
  Herbicidal action 28 DAT [%] against Kochia scoparia: 20%
post-emergence, single active compound (A2 series), g a.i./ha: r357 50, r359 5
  Herbicidal action 28 DAT [%] against Polygonum convulvulus: 80%

## O=C(Nc1ccc(F)cc1F)c1cccnc1Oc1cccc(C(F)(F)F)c1 [(B2.18) Diflufenican]
28 DAT, g a.i./ha: r8 270, r9 90, r10 30, r11 15, r12 5
  Herbicidal action against Digitaria sanguinalis: 20%
28 DAT, g a.i./ha: r35 270, r36 90, r37 30, r38 15, r39 5, r40 1.67
  Herbicidal action against Setaria faberi: 0%
28 DAT, g a.i./ha: r51 270, r52 15, r53 5, r54 1.67
  Herbicidal action against Setaria viridis: 10%
28 DAT, g a.i./ha: r149 15, r150 5, r151 270, r152 90, r153 30
  Herbicidal action against Alopecurus myosuroides (sensitive biotype): 0%
28 DAT, g a.i./ha: r231 15, r232 5, r233 270
  Herbicidal action against Papaver rhoeas: 30%
28 DAT, g a.i./ha: r294 5, r295 90
  Herbicidal action against Veronica hederifolia: 60%
(Z32) 28 DAT
  Herbicidal action against Echinochloa crus-galli: 10%
(Z90) 14 DAT, g a.i./ha: r533 16, r534 4, r535 1, r536 90, r537 30
  Herbicidal action against Centaurea cyanus: 50%
(Z90) 28 DAT, g a.i./ha: r586 16, r587 30
  Herbicidal action against Lamium purpureum L.: 10%
(Z90) 28 DAT, g a.i./ha: r594 16, r595 30
  Herbicidal action against Lolium rigidum: 0%
(Z90) 28 DAT, g a.i./ha: r602 4, r603 90
  Herbicidal action against Matricaria inodora: 10%
(Z90) 28 DAT, g a.i./ha: r624 4, r625 270
  Herbicidal action against Viola tricolor: 40%
(Z119) 14 DAT, g a.i./ha: r632 16, r633 4, r634 30, r635 270
  Herbicidal action against Alopecurus myosuroides: 20%
[1]
  Herbicidal action against Lolium rigidum: 10%
(Z119) 14 DAT
  Herbicidal action against Phalaris minor: 20%
  Herbicidal action against Poa annua L.: 20%
[2]
  Herbicidal action against Centaurea cyanus: 10%
(Z119) 28 DAT
  Herbicidal action against Galium aparine: 20%
[3]
  Herbicidal action against Lolium rigidum: 0%
Z61 28 DAT, g a.i./ha: r459 30, r460 15
  Herbicidal action against Abutilon theophrasti: 10%
Z61 28 DAT, g a.i./ha: r479 30, r480 1.7
  Herbicidal action against Brachiaria platyphylla: 10%
Z61 28 DAT, g a.i./ha: r487 270, r488 5
  Herbicidal action against Eleusine indica: 20%

## CONC(=O)C1=C[C@@H](NC(=O)[C@@]2(C)CC(c3cc(F)cc(F)c3)=NO2)CO1 [Compound A5, (5R)-3-(3,5-difluorophenyl)-N-[(3R)-5-(methoxycarbamoyl)-2,3-dihydrofuran-3-yl]-5-methyl-4H-isoxazole-5-carboxamide]
1 g a.i./ha
  Herbicidal action 14 DAT against Lolium rigidum (resistant biotype): 10%
  Herbicidal action 14 DAT against Matricaria inodora: 30%
  Herbicidal action 14 DAT against Viola tricolor: 30%
  Herbicidal action 28 DAT against Centaurea cyanus: 10%
  Herbicidal action 28 DAT against Galium aparine: 30%
  Herbicidal action 28 DAT against Lamium purpureum L.: 40%
  Herbicidal action 28 DAT against Matricaria inodora: 0%
  Herbicidal action 28 DAT against Viola tricolor: 0%
4 g a.i./ha
  Herbicidal action 14 DAT against Lolium rigidum (resistant biotype): 20%
  Herbicidal action 14 DAT against Matricaria inodora: 50%
  Herbicidal action 14 DAT against Viola tricolor: 20%
  Herbicidal action 28 DAT against Centaurea cyanus: 20%
  Herbicidal action 28 DAT against Matricaria inodora: 10%
  Herbicidal action 28 DAT against Phalaris minor: 30%
  Herbicidal action 28 DAT against Viola tricolor: 0%
16 g a.i./ha
  Herbicidal action 14 DAT against Alopecurus myosuroides: 70%
  Herbicidal action 14 DAT against Lolium rigidum: 60%
  Herbicidal action 14 DAT against Lolium rigidum (resistant biotype): 30%
  Herbicidal action 14 DAT against Matricaria inodora: 50%
  Herbicidal action 14 DAT against Poa annua L.: 30%
  Herbicidal action 28 DAT against Alopecurus myosuroides: 40%
  Herbicidal action 28 DAT against Centaurea cyanus: 50%
  Herbicidal action 28 DAT against Lamium purpureum L.: 60%
  Herbicidal action 28 DAT against Matricaria inodora: 20%
  Herbicidal action 28 DAT against Phalaris minor: 40%
  Herbicidal action 28 DAT against Viola tricolor: 10%
[1]
  Herbicidal action against Lolium rigidum: 60%
(Z119) 14 DAT
  Herbicidal action against Phalaris minor: 70%
  Herbicidal action against Poa annua L.: 20%
(Z119) 28 DAT, g a.i./ha: r642 16, r643 4, r644 90, r645 30, r646 270
  Herbicidal action against Alopecurus myosuroides: 40%
[2]
  Herbicidal action against Centaurea cyanus: 50%
(Z119) 28 DAT
  Herbicidal action against Galium aparine: 30%
[3]
  Herbicidal action against Lolium rigidum: 30%
post-emergence, single active compound (A5 series), g a.i./ha: r591 16, r592 4, r593 450, r594 150, r595 50
  Herbicidal action in [%] 28 DAT against Alopecurus myosuroides: 40%
post-emergence, single active compound (A5 series), g a.i./ha: r617 4, r618 450
  Herbicidal action in [%] 28 DAT against Bromus sterilis: 60%
post-emergence, single active compound (A5 series), g a.i./ha: r649 1, r650 150
  Herbicidal action in [%] 14 DAT against Galium aparine: 50%
post-emergence, single active compound (A5 series), g a.i./ha: r659 1, r660 450
  Herbicidal action in [%] 14 DAT against Lamium purpureum L.: 60%
post-emergence, single active compound (A5 series), g a.i./ha: r669 1, r670 450
  Herbicidal action in [%] 28 DAT against Lamium purpureum L.: 40%
post-emergence, single active compound (A5 series), g a.i./ha: r700 16, r701 450, r702 150
  Herbicidal action in [%] 28 DAT against Phalaris minor: 40%
post-emergence, single active compound (A5 series), g a.i./ha: r710 16, r711 450, r712 150, r713 50
  Herbicidal action in [%] 14 DAT against Poa annua L.: 30%
post-emergence, single active compound, g a.i./ha: r679 16, r680 150, r681 50
  Herbicidal action in [%] 28 DAT against Lolium rigidum: 30%
post-emergence, single active compound, g a.i./ha: r689 16, r690 450, r691 150, r692 50
  Herbicidal action in [%] 14 DAT against Lolium rigidum (resistant bio type): 30%
post-emergence, single active compound, g a.i./ha: r721 16, r722 450
  Herbicidal action in [%] 28 DAT against Poa annua L.: 20%
